Experimental data reported in PMC10114980, “Triple targeting of mutant EGFR^L858R/T790M, COX-2, and 15-LOX: design and synthesis of novel quinazolinone tethered phenyl urea derivatives for anti-inflammatory and anticancer evaluation” (Journal of Enzyme Inhibition and Medicinal Chemistry, 2023).

Experiments:
KM12 = experiment: NCI single dose screen, KM12; type: cell-based; conditions: Homo sapiens; KM12, colon cancer; single dose 10^−5 M; read-out: growth inhibition percentage
Description: (§1) Screening of the anticancer activity of the newly synthesised compounds (6a, 6c, 6d, 6e, 6j, 6l, 6m, 6n, 6o, and 6p) was performed by the US National Cancer Institute (NCI) using 60 different human tumour cell lines in accordance with standard procedures formerly reported.
(§2) In vitro anticancer screening was carried out for the selected compounds at a single dose (10^−5 M) against 60 different human tumour cell lines of nine different cancer cell types: leukaemia, lung, colon, CNS, melanoma, ovarian, renal, prostate, and breast cancers.

MOLT-4 = experiment: NCI single dose screen, MOLT-4; type: cell-based; conditions: Homo sapiens; MOLT-4, leukaemia; single dose 10^−5 M; read-out: growth inhibition percentage
Description: as §1, §2

ovine COX-1 = target: T1, ovine COX-1 (Ovis aries, UniProt P05979); experiment: In vitro COX-1 inhibition assay kit (Cayman); type: biochemical; conditions: mean ± SEM, n = 3 replicates
T1 sequence (P05979 25-600): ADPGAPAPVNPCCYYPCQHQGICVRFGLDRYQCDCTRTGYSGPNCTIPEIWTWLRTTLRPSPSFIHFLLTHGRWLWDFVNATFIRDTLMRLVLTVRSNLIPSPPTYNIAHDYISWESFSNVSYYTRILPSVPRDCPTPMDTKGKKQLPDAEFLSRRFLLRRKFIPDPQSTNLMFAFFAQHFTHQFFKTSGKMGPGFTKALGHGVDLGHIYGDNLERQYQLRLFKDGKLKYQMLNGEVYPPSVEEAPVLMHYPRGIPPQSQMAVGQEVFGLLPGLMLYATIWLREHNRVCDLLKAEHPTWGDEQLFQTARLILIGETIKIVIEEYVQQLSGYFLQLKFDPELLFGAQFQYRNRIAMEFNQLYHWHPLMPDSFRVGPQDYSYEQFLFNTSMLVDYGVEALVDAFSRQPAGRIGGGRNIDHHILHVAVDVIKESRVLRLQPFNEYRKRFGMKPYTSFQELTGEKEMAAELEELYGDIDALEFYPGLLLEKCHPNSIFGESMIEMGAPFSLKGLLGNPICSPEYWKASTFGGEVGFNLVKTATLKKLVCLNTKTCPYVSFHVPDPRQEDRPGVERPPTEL
Description: The half-maximal inhibitory concentration (IC50, μM) was determined, and the COX-2 selectivity index (SI) was calculated as IC50 (COX-1)/IC50 (COX-2).

NCI-H322M = experiment: NCI single dose screen, NCI-H322M; type: cell-based; conditions: Homo sapiens, non-small cell lung cancer, single dose 10^−5 M, read-out: growth inhibition percentage
Description: as §1, §2

NCI/ADR-RES = experiment: NCI single dose screen, NCI/ADR-RES; type: cell-based; conditions: Homo sapiens, ovarian cancer, single dose 10^−5 M, read-out: growth inhibition percentage
Description: as §1, §2

OVCAR-5 = experiment: NCI single dose screen, OVCAR-5; type: cell-based; conditions: Homo sapiens; OVCAR-5, ovarian cancer; single dose 10^−5 M; read-out: growth inhibition percentage
Description: as §1, §2

786-0 = experiment: NCI single dose screen, 786-0; type: cell-based; conditions: Homo sapiens; 786-0, renal cancer; single dose 10^−5 M; read-out: growth inhibition percentage
Description: as §1, §2

T-47D = experiment: NCI single dose screen, T-47D; type: cell-based; conditions: Homo sapiens, T47D, breast cancer, single dose 10^−5 M, read-out: growth inhibition percentage
Description: as §1, §2

HL-60(TB) = experiment: NCI single dose screen, HL-60(TB); type: cell-based; conditions: Homo sapiens, leukaemia, single dose 10^−5 M, read-out: growth inhibition percentage
Description: as §1, §2

RPMI-8226 = experiment: NCI single dose screen, RPMI-8226; type: cell-based; conditions: Homo sapiens; RPMI-8226, leukaemia; single dose 10^−5 M; read-out: growth inhibition percentage
Description: as §1, §2

HOP-92 = experiment: NCI single dose screen, HOP-92; type: cell-based; conditions: Homo sapiens; HOP-92, non-small cell lung cancer; single dose 10^−5 M; read-out: growth inhibition percentage
Description: as §1, §2

DU-145 = experiment: NCI single dose screen, DU-145; type: cell-based; conditions: Homo sapiens; DU-145, prostate cancer; single dose 10^−5 M; read-out: growth inhibition percentage
Description: as §1, §2

[1] = test system: LPS-induced IL-6 production in RAW 264.7 cells; experiment: IL-6 production in LPS-activated RAW 264.7 cells (ELISA); type: cell-based; conditions: LPS-activated RAW 264.7 cells treated with 25 µM of the compound
SR = experiment: NCI single dose screen, SR; type: cell-based; conditions: Homo sapiens, leukaemia, single dose 10^−5 M, read-out: growth inhibition percentage
Description: as §1, §2

PC-3 = experiment: NCI single dose screen, PC-3; type: cell-based; conditions: Homo sapiens; PC-3, prostate cancer; single dose 10^−5 M; read-out: growth inhibition percentage
Description: as §1, §2

SN12C = experiment: NCI single dose screen, SN12C; type: cell-based; conditions: Homo sapiens, renal cancer, single dose 10^−5 M, read-out: growth inhibition percentage
Description: as §1, §2

SNB-75 = experiment: NCI single dose screen, SNB-75; type: cell-based; conditions: Homo sapiens; SNB-75, CNS cancer; single dose 10^−5 M; read-out: growth inhibition percentage
Description: as §1, §2

SF-539 = experiment: NCI single dose screen, SF-539; type: cell-based; conditions: Homo sapiens, read-out: growth inhibition percentage
Description: as §1, §2

HS 578T = experiment: NCI single dose screen, HS 578T; type: cell-based; conditions: Homo sapiens, breast cancer, single dose 10^−5 M, read-out: growth inhibition percentage
Description: as §1, §2

MDA-MB-231/ATCC = experiment: NCI single dose screen, MDA-MB-231/ATCC; type: cell-based; conditions: Homo sapiens, breast cancer, single dose 10^−5 M, read-out: growth inhibition percentage
Description: as §1, §2

COLO 205 = experiment: NCI single dose screen, COLO 205; type: cell-based; conditions: Homo sapiens; COLO 205, colon cancer; single dose 10^−5 M; read-out: growth inhibition percentage
Description: as §1, §2

NCI-H460 = experiment: NCI single dose screen, NCI-H460; type: cell-based; conditions: Homo sapiens; NCI-H460, non-small cell lung cancer; single dose 10^−5 M; read-out: growth inhibition percentage
Description: as §1, §2

RXF 393 = experiment: NCI single dose screen, RXF 393; type: cell-based; conditions: Homo sapiens; RXF 393, renal cancer; single dose 10^−5 M; read-out: growth inhibition percentage
Description: as §1, §2

UO-31 = experiment: NCI single dose screen, UO-31; type: cell-based; conditions: Homo sapiens; UO-31, renal cancer; single dose 10^−5 M; read-out: growth inhibition percentage
Description: as §1, §2

SNB-19 = experiment: NCI single dose screen, SNB-19; type: cell-based; conditions: Homo sapiens; SNB-19, CNS cancer; single dose 10^−5 M; read-out: growth inhibition percentage
Description: as §1, §2

A498 = experiment: NCI single dose screen, A498; type: cell-based; conditions: Homo sapiens; A498, renal cancer; single dose 10^−5 M; read-out: growth inhibition percentage
Description: as §1, §2

Row | Structure (SMILES) | inhibition at 10 µM (KM12) [%] | inhibition at 10 µM (MOLT-4) [%] | inhibition at 10 µM (NCI-H322M) [%] | inhibition at 10 µM (NCI/ADR-RES) [%] | inhibition at 10 µM (OVCAR-5) [%] | inhibition at 10 µM (786-0) [%] | inhibition at 10 µM (T-47D) [%] | inhibition at 10 µM (HL-60(TB)) [%] | inhibition at 10 µM (RPMI-8226) [%] | inhibition at 10 µM (HOP-92) [%] | inhibition at 10 µM (DU-145) [%] | IL-6 concentration [1] [pg/mL] | inhibition at 10 µM (SR) [%] | inhibition at 10 µM (PC-3) [%] | inhibition at 10 µM (SN12C) [%] | inhibition at 10 µM (SNB-75) [%] | inhibition at 10 µM (SF-539) [%] | inhibition at 10 µM (HS 578T) [%] | inhibition at 10 µM (MDA-MB-231/ATCC) [%] | inhibition at 10 µM (COLO 205) [%] | further results
1 | CN1CN(NC(=O)Nc2ccccc2)C(=O)c2ccccc21 [Compound 6a, 1-(1-Methyl-4-oxo-1,4-dihydroquinazolin-3(2H)-yl)-3-phenylurea] | < 10 | < 10 | < 10 | < 10 | < 10 | < 10 | < 10 | < 10 | < 10 | < 10 | < 10 | 173.7 ± 4.77 | < 10 | < 10 | < 10 | < 10 | < 10 | < 10 | < 10 | < 10 | IC50 (ovine COX-1): 12.5 ± 1.36 µM; inhibition at 10 µM (NCI-H460): < 10%; melting point: 240 to 241 °C; inhibition at 10 µM (RXF 393): < 10%; inhibition at 10 µM (UO-31): < 10%; inhibition at 10 µM (SNB-19): < 10%; inhibition at 10 µM (A498): < 10%
2 | CN1c2ccccc2C(=O)N(NC(=O)Nc2ccccc2)C1c1ccccc1 (centres unmarked) [Compound 6c, 1-(1-Methyl-4-oxo-2-phenyl-1,4-dihydroquinazolin-3(2H)-yl)-3-phenylurea] | < 10 | < 10 | < 10 | < 10 | < 10 | 35.3 | < 10 | < 10 | < 10 | < 10 | < 10 | 468.4 ± 87.46 | < 10 | < 10 | < 10 | < 10 | < 10 | 56.8 | < 10 | < 10 | IC50 (ovine COX-1): 1 ± 1.78 µM; inhibition at 10 µM (NCI-H460): < 10%; melting point: 180 to 181 °C; inhibition at 10 µM (RXF 393): < 10%; inhibition at 10 µM (UO-31): 19.5%; inhibition at 10 µM (SNB-19): < 10%; inhibition at 10 µM (A498): < 10%
3 | CN1c2ccccc2C(=O)N(NC(=O)Nc2ccccc2)C1c1ccc(F)cc1 (centres unmarked) [Compound 6d, 1-(2-(4-Fluorophenyl)-1-methyl-4-oxo-1,4-dihydroquinazolin-3(2H)-yl)-3-phenylurea] | < 10 | 11.1 | < 10 | < 10 | < 10 | 11.9 | < 10 | < 10 | < 10 | < 10 | < 10 | 358.7 ± 12.85 | < 10 | 18.6 | < 10 | 13.8 | < 10 | < 10 | < 10 | < 10 | IC50 (ovine COX-1): 4.56 ± 1.33 µM; inhibition at 10 µM (NCI-H460): < 10%; melting point: 230 to 232 °C; inhibition at 10 µM (RXF 393): < 10%; inhibition at 10 µM (UO-31): 36.2%; inhibition at 10 µM (SNB-19): < 10%; inhibition at 10 µM (A498): < 10%
4 | CN1c2ccccc2C(=O)N(NC(=O)Nc2ccccc2)C1c1ccc([N+](=O)[O-])cc1 (centres unmarked) [Compound 6e, 1-(1-Methyl-2-(4-nitrophenyl)-4-oxo-1,4-dihydroquinazolin-3(2H)-yl)-3-phenylurea] | < 10 | < 10 | < 10 | < 10 | < 10 | 39.9 | < 10 | < 10 | < 10 | < 10 | < 10 | 198.8 ± 6.08 | < 10 | < 10 | < 10 | < 10 | < 10 | < 10 | < 10 | < 10 | IC50 (ovine COX-1): 9.53 ± 1.21 µM; inhibition at 10 µM (NCI-H460): < 10%; melting point: 241 to 243 °C; inhibition at 10 µM (RXF 393): < 10%; inhibition at 10 µM (UO-31): 14.4%; inhibition at 10 µM (SNB-19): < 10%; inhibition at 10 µM (A498): < 10%
5 | CC1N(NC(=O)Nc2ccc(F)cc2)C(=O)c2ccccc2N1C (centres unmarked) [Compound 6l, 1–(1,2-Dimethyl-4-oxo-1,4-dihydroquinazolin-3(2H)-yl)-3-(4-fluorophenyl)urea] | < 10 | < 10 | < 10 | < 10 | < 10 | < 10 | < 10 | < 10 | < 10 | < 10 | < 10 | 536.8 ± 3.55 | < 10 | < 10 | < 10 | < 10 | < 10 | < 10 | < 10 | < 10 | inhibition at 10 µM (NCI-H460): < 10%; melting point: 187 to 190 °C; inhibition at 10 µM (RXF 393): < 10%; inhibition at 10 µM (UO-31): < 10%; inhibition at 10 µM (SNB-19): < 10%; inhibition at 10 µM (A498): < 10%
